Source: patent US20110038921A1, “METHODS AND COMPOSITIONS FOR TEMPORAL RELEASE OF AGENTS FROM A BIODEGRADABLE SCAFFOLD” (Clemson University Research Foundation, priority 2009, published 2011)

What was measured:
MMP-1 [1] = assay: LPS-stimulated MMP-1 expression in U937 macrophages, ELISA of culture medium; assay type: cell-based, human; conditions: 10 μM PD98059, 100 ng/ml LPS, 24 h
Procedure: (§1) FIGS. 2A-D. A. E. coli and A. actinomycetemcomitans LPS activate MAPK pathways in macrophages. RAW 264.7 cells were stimulated for 15 min with LPS and whole cell lysates were used for Western blot analysis. […] B. A. actinomycetemcomitans LPS stimulation of IL-6 requires p38 MAPK signaling. Wild-type and p38 MAPK deficient cells were stimulated with A. actinomycetemcomitans LPS for 24 hrs (white bars). Cells were rescued with pcDNA containing p38a cDNA (p38α) in p38^−/− cells but the dominant negative mutant (p38AF) was not able to restore LPS-induced IL-6 expression. C. […] U937 macrophages were treated with 100 ng/ml of LPS in the presence or absence of 10 μM of PD98059 for 24 h. After the treatment, MMP-1 in culture medium was quantified by ELISA. D. Nuclear proteins were extracted from cells for electrophoretic mobility shift assay to determine AP-1 DNA-binding activity.

MMP-1 [2] = conditions: rabbit model of osteoarthritis; cited from earlier work
MMP-1 [3] = assay: U937 macrophages exposed to inhibitor-embedded scaffold with LPS, MMP-1 ELISA; assay type: cell-based, human; conditions: inhibitor released from PLGA-collagen scaffold; LPS 100 ng/ml; 24 hrs
Procedure: (§2) FIGS. 9A-B. Human U937 macrophages were exposed to control scaffold, PD98059-embedded scaffold, or SB203580-embedded scaffold in the presence or absence of LPS (100 ng/ml) for 24 hrs. After the exposure, culture medium was collected for ELISA to quantify IL-6 (A) or MMP-1 (B).

MMP expression = conditions: macrophages, fibroblasts, endothelial cells, epithelial cells; cited from earlier work
AP-1 = AP-1 DNA-binding activity, electrophoretic mobility shift assay on nuclear proteins of U937 macrophages; assay type: cell-based, human; conditions: 10 μM PD98059, 100 ng/ml LPS, 24 h
Procedure: as §1

IL-6 = assay: U937 macrophages exposed to inhibitor-embedded scaffold with LPS, IL-6 ELISA; assay type: cell-based, human; conditions: inhibitor released from PLGA-collagen scaffold; LPS 100 ng/ml; 24 hrs
Procedure: as §2

[4] = Isoelectric point / hydrophobicity; assay type: physicochemical
[5] = collagen; with literature reference 123; cited from earlier work

Row | Compound | MMP-1 in LPS stimulated cultures (MMP-1 [3]) | MMP expression (MMP expression) | IL-6 in LPS stimulated cultures (IL-6) | further results
1 | COc1cccc(-c2cc(=O)c3ccccc3o2)c1N [PD98059] | significant inhibition | inhibit MMP expression | significant inhibition | LPS-stimulated MMP-1 expression (MMP-1 [1]): inhibitory effect; MMP-1 production by chondrocytes (MMP-1 [2]): decreased MMP-1 production; AP-1 DNA-binding activity (AP-1): inhibitory effect; Hydrophobicity [4]: hydrophobic
2 | C[S+]([O-])c1ccc(-c2nc(-c3ccncc3)c(-c3ccc(F)cc3)[nH]2)cc1 (centres unmarked) [SB203580] | significant inhibition | – | significant inhibition | –
3 | N#CC(=C(/N)Sc1ccccc1N)/C(C#N)=C(\N)Sc1ccccc1N [U0126] | – | inhibit MMP expression | – | –
4 | Collagen | – | – | – | Isoelectric point [5]: 5.5
